Laboratory results: patent publication US7338776B2, “Production of UGPPase” (JCR Pharmaceuticals Co., Ltd., priority 2002, dated 2008)

T1: Porcine UGPPase (Sus scrofa, UniProt Q865Y9)
T1 construct: Fresh porcine kidney, 3.6-kg of weight, was homogenized; from tissue; host or cells: porcine kidney
T1 sequence (Q865Y9 1-222): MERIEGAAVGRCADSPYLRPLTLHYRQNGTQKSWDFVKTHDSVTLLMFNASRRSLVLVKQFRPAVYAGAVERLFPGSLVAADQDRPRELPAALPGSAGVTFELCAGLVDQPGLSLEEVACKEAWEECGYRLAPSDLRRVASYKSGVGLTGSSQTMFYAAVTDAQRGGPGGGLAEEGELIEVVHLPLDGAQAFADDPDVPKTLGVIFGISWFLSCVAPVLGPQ

T2: human UGPPase (Homo sapiens, UniProt O95848)
T2 construct: made in house; host or cells: E. coli AD494(DE3), plasmid pET11a-AAD15563.1
T2 sequence (O95848 1-222): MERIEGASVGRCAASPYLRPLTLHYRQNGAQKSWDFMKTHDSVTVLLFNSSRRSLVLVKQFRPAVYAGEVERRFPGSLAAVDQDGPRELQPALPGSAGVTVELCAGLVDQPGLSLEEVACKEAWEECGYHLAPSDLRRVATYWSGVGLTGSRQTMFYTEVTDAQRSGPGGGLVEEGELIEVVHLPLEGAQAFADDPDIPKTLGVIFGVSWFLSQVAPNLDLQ

B1: hUGPPase His-tag fusion protein: His-tagged hUGPPase expressed from pET-19b AAD15563.1 in E. coli, purified; ELISA standard (protein)
chain: MGLLLPLPVPGLLLLEAETHPHFPCNHGQEGACTRHARVRAYPGPLVHRRKRPAWLWELAAPACPGAAMERIEGASVGRCAASPYLRPLTLHYRQNGAQKSWDFMKTHDSVTVLLFNSSRRSLVLVKQFRPAVYAGEVERRFPGSLAAVDQDGPRELQPALPGSAGVTVELCAGLVDQPGLSLEEVACKEAWEECGYHLAPSDLRRVATYWSGVGLTGSRQTMFYTEVTDAQRSGPGGGLVEEGELIEVVHLPLEGAQAFADDPDIPKTLGVIFGVSWFLSQVAPNLDLQ
modifications: left off: small tags and cut ends
notes: His-tagged hUGPPase expressed from pET-19b AAD15563.1 in E. coli, purified; ELISA standard
B2: human UGPPase: recombinant protein AAD15563.1 (SEQ ID NO:2) expressed in E. coli AD494(DE3), final MonoP-purified product (protein, listed as Homo sapiens)
chain: T2 sequence (O95848 1-222)
modifications: USPPase

What was measured:
Porcine UGPPase = target: T1, Porcine UGPPase; experiment: UGPPase activity measurement (G1P produced, coupled NADH read-out), substrate specificity and UDPG dependence, porcine enzyme; format: biochemical, pig; conditions: 5 mM of corresponding substrate, UDPG = 100%
Experimental: (§1) UGPPase activity is defined based on the amount of G1P produced by the enzyme. The measurement is carried in two-step reactions according to the method reported by Rodriguez-Lopez et al. (11). In the first reaction, 50 μl of the reaction mixture consisting of a sample containing UGPPase, 0-20 mM concentration of a sugar nucleotide (UDP-, ADP- or GDP-glucose)(SIGMA), 20 mM MgCl2, and 50 mM Tris-HCl (pH 9.0), and the mixture is incubated at 37° C. for 30 minutes. As a blank, the same sample that has been boiled for two minutes to inactivate UGPPase is used. After the incubation period, the reaction is terminated by a two-minute boiling, and the mixture centrifuged at 20,000 g for 10 minutes at 4° C.
(§2) The reaction mixture is placed in a 96-well FluoroNunc™ plate (NUNC) and incubated at 37° C. for 10 minutes. This second reaction produces an equimolar amount of NADH to that of G1P produced in the first reaction. The amount of NADH is determined by measuring OD at 340 nm using a microplate reader (MOLECULAR DEVICE).
(§3) The activity was calculated as follows: 1U=[a]/30/0.03 where [a]is the amount in μmol of NADH produced in the reaction.
(§4) The above conditions of the first reaction were modified according to the purpose of each of the test, as specifically indicated below.

human UGPPase = target: T2, human UGPPase; experiment: UGPPase activity measurement (G1P produced, coupled NADH read-out), substrate specificity and UDPG dependence, human recombinant enzyme; format: biochemical; conditions: 5 mM of corresponding substrate, UDPG = 100%
Experimental: as §1, §2, §3, §4

[1] = target: rabbit anti-hUGPPase antibody; experiment: hUGPPase ELISA; format: binding; conditions: rabbit anti-hUGPPase antibody as solid phase, fusion protein as standard (FIG. 23)
Experimental: The rabbit anti-hUGPPase antibody prepared in (14) above was diluted with 50 mM NaHCO3, pH 9.6 to prepare a 25 μg/ml solution. The solution was added to the wells of a 96-well plate (NUNC), 100 μl each, and incubated at 37° C. for 1 hour for coating. The antibody solution was removed and 300 μl of a blocking buffer [1.0% (w/v) BSA, PBS, 10 mM glycine, pH 7.4] was added to each well and incubated at 37° C. for 1 hour for blocking.
For preparation of a standard, hUGPPase His-tag fusion protein was diluted stepwise to 10 μg/ml-0.1 ng/ml using a dilution buffer [20 mM Tris, 150 mM NaCl, 0.1% (w/v) BSA, pH7.4].
To use as samples, two types of E. coli AD494(DE3) cells, the one with introduced plasmid pET-19b AAD15563.1 and the other with plasmid pET-19b, respectively, were lysed and diluted to 50, 5, 0.5 and 0.05 μg/ml with the dilution buffer. Each well of the plate was removed of the blocking buffer and washed 3 times with 300 μl each of TTBS. To each well was added 100 μl of the standard or the sample solution and an incubation followed at 37° C. for 1 hour.
For detection of hUGPPase His-tag fusion protein, the HRP-conjugated rabbit anti-hUGPPase antibody prepared in (15) was used after dilution to 0.5 μg/ml with the dilution buffer. […] After a 5-min incubation at room temperature, 50 μl of 2M H2SO4 was added to each well to terminate the reaction, and OD at 450 nm was measured.

[2] = Specific activity and optimal pH of purified UGPPase products; format: biochemical; conditions: UGPPase activity
Experimental: as §1, §2, §3, §4

Molecule	% activity with respect to UDPG (Porcine UGPPase)	% activity with respect to UDPG (human UGPPase)	EC50 (effecter concentration for half-maximum response) of the ELISA system [1] [µg/mL]	Specific activity of the final purified product [2] [U/mg]	Specific activity of the final purified product ([2]; listed as r-hUGPPase) [U/mg]
Nc1ncnc2c1ncn2[C@@H]1O[C@H](COP(=O)(O)OP(=O)(O)OC[C@H]2OC(O)[C@H](O)[C@@H]2O)[C@@H](O)[C@H]1O (stereo partly shown) [ADP-ribose]	95%	110%	–	–	–
Nc1nc2c(ncn2[C@@H]2O[C@H](COP(=O)(O)OP(=O)(O)O[C@H]3O[C@H](CO)[C@@H](O)[C@H](O)[C@H]3O)[C@@H](O)[C@H]2O)c(=O)[nH]1 [GDPG, GDP-glucose]	~10%	~10%	–	–	–
Nc1ccn([C@@H]2O[C@H](COP(=O)(O)OP(=O)(O)O[C@H]3O[C@H](CO)[C@@H](O)[C@H](O)[C@H]3O)[C@@H](O)[C@H]2O)c(=O)n1 [CDPG]	2%	3%	–	–	–
O=[N+]([O-])c1ccc(OP(=O)(O)Oc2ccc([N+](=O)[O-])cc2)cc1 [Bis-PNPP]	bdl	bdl	–	–	–
O=C(O)[C@H]1O[C@H](OP(=O)(O)OP(=O)(O)OC[C@H]2O[C@@H](n3ccc(=O)[nH]c3=O)[C@H](O)[C@@H]2O)[C@H](O)[C@@H](O)[C@@H]1O [UDP-glucuronic]	bdl	bdl	–	–	–
O=[N+]([O-])c1ccc(OP(=O)(O)O)cc1 [PNPP]	bdl	bdl	–	–	–
NC(=O)c1ccc[n+]([C@@H]2O[C@H](COP(=O)([O-])OP(=O)(O)OC[C@H]3O[C@@H](n4cnc5c(N)ncnc54)[C@H](O)[C@@H]3O)[C@@H](O)[C@H]2O)c1 [NAD]	bdl	bdl	–	–	–
Nc1ncnc2c1ncn2[C@@H]1O[C@H](COP(=O)(O)OP(=O)(O)OP(=O)(O)O)[C@@H](O)[C@H]1O [ATP]	bdl	bdl	–	–	–
Nc1ncnc2c1ncn2[C@@H]1O[C@H](COP(=O)(O)O)[C@@H](O)[C@H]1O [AMP, adenosine 5′-monophosphate]	bdl	bdl	–	–	–
Nc1ncnc2c1ncn2[C@@H]1O[C@H](COP(=O)(O)OP(=O)(O)O)[C@@H](O)[C@H]1O [ADP]	bdl	bdl	–	–	–
O=c1ccn([C@@H]2O[C@H](COP(=O)(O)OP(=O)(O)OP(=O)(O)O)[C@@H](O)[C@H]2O)c(=O)[nH]1 [UTP]	bdl	bdl	–	–	–
B1	–	–	0.2468	–	–
B2	–	–	–	6.7	6.74
